Source: patent publication US20240374607A1, “MEDICAMENT FOR PREVENTING AND/OR TREATING DRY EYE” (Santen Pharmaceutical Co., Ltd., priority 2021, published 2024)

Key:
[1] = system: normal male cynomolgus monkeys; assay: Tear film break-up time (TBUT) after single ocular instillation, Tests 1 and 2; details: for Extension of TBUT: 1% (w/v) ophthalmic solution, single ocular instillation, FIG. 2
Experimental: TBUT measurement tests were conducted for 10 normal male cynomolgus monkeys by partial crossover design of 5 monkeys per group. The test animals were given general anesthesia by intramuscular injection with ketamine hydrochloride (Ketalar for intramuscular injection 500 mg (registered trademark), Daiichi Sankyo Company, Limited.), and then were let their eyes closed. Then, TBUT was measured before and at 15, 30, and 60 minutes after ocular instillation of a vehicle or each ophthalmic solution (20 μL/eye) to the right eye. Specifically, 1% fluorescein solution (2 μL/eye) was instilled, and the time right after opening of the eyelids until breaking of the fluorescein layer (tear film) on the cornea was measured three times under a slit lamp, followed by calculation of the average. (N=5 eyes)
TBUT was measured in a similar manner to the method of Test 1. (N=4 or 5 eyes)

[2] = system: dry-eye model SD rat with exorbital lacrimal gland removed; assay: Quantity of tears by Schirmer strip in dry-eye model, Tests 3 and 4; format: in vivo; details: for Incremental difference in Schirmer's test at 0.5 hours after ocular instillation / Incremental difference in Schirmer's test at 8 hours after ocular instillation: 5 μL/eye, difference from vehicle-instilled group
Experimental: A somnopentyl injection five-fold diluted with physiological saline was intraperitoneally administered to a normal male SD (Sprague-Dawley) rat by 2.5 mL/kg, and the rat was given general anesthesia, followed by keeping the anesthetized state by inhalation of about 1 to 3% isoflurane. Then, the skin on each check was incised to remove the exorbital lacrimal gland, followed by suturation with a Michel suture clamp. In this test, an individual wherein reduction of tears was confirmed after 13 weeks from the removal of exorbital lacrimal gland was included as the experimental animal.
Half an hour after treatment of general anesthesia, Schirmer strip (1 mm×17 mm) was inserted to conjunctival sac of the lower eyelid of a rat, and then after 1 minute of the insertion, the wet part of the Schirmer strip was measured in increments of 0.5 mm. (N=14 or 16 eyes)
The quantity of tears was measured in a similar manner to Test 3. (N=10 eyes)
The following Tables 1 and 2 show incremental differences (mm/min) in Schirmer's test between the vehicle-instilled group and the ophthalmic-solution-instilled groups at 0.5 and 8 hours, respectively, after ocular instillation according to the results of Test 3 and Test 4. The symbol “-” in Tables 1 and 2 means not-performed.

[3] = system: dry-eye model rat whose exorbital lacrimal gland is excised; assay: Tear film break-up time in dry-eye model rat, Test 6; format: in vivo; details: concentration of 0.00001% or more, 5 μL/eye, 0.5 and 2 hours after ocular instillation; FIG. 5
Description: A male SD rat was given general anesthesia, the skin on each […] cheek was incised under the anesthetized state, and then the exorbital lacrimal gland was excised to prepare a dry-eye model rat whose exorbital lacrimal gland is excised.
Untreated normal rats were assigned to an untreated group, and dry-eye model rats whose exorbital lacrimal gland is excised were assigned to a vehicle group and each ophthalmic solution group, each group consisting of 6 rats. For each group, TBUT measurement tests were conducted.

[4] = system: normal male cynomolgus monkeys; assay: Intraocular pressure test, twice daily repeated instillation, Test 5; format: in vivo, cynomolgus monkey; details: 20 μL/eye twice daily, Day 1, 7 and 14, FIG. 4
Experimental: Specifically, one drop of 0.4% oxybuprocaine hydrochloride ophthalmic solution (trade name: Benoxil (registered trademark) ophthalmic solution 0.4%) was instilled to the right eye so as to provide surface anesthesia, and then the intraocular pressure was measured three times with Mentor tonometer (applanation), followed by calculation of the average. (N=6 eyes)

## CC(C)(C)NCC(O)c1cc(Cl)c(N)c(Cl)c1 (centres unmarked) [clenbuterol]
[1]
  Extension of TBUT: not confirmed

## CC(Cc1ccc(O)cc1)NCC(O)c1cc(O)cc(O)c1 (centres unmarked) [fenoterol]
[2]; 0.001% ophthalmic solution
  Incremental difference in Schirmer's test at 0.5 hours after ocular instillation: 1.8 mm/min
[2]; 0.001% ophthalmic solution, 8 hours
  Incremental difference in Schirmer's test at 8 hours after ocular instillation: 0.0 mm/min
[2]; 0.01% ophthalmic solution
  Incremental difference in Schirmer's test at 0.5 hours after ocular instillation: 4.8 mm/min
[2]; 0.01% ophthalmic solution, 8 hours
  Incremental difference in Schirmer's test at 8 hours after ocular instillation: 0.2 mm/min
[2]; 0.1% ophthalmic solution
  Incremental difference in Schirmer's test at 0.5 hours after ocular instillation: 6.1 mm/min
[2]; 0.1% ophthalmic solution, 8 hours
  Incremental difference in Schirmer's test at 8 hours after ocular instillation: 0.9 mm/min
[2]; 1% ophthalmic solution
  Incremental difference in Schirmer's test at 0.5 hours after ocular instillation: 3.6 mm/min
[2]; 1% ophthalmic solution, 8 hours
  Incremental difference in Schirmer's test at 8 hours after ocular instillation: 1.1 mm/min
[1]
  Extension of TBUT: not confirmed

## COc1ccc(CC(C)(C)NC[C@H](O)c2cc(O)cc3c2OCC(=O)N3)cc1 [olodaterol, 6-hydroxy-8-((1R)-1-hydroxy-2-{[2-(4-methoxyphenyl)-1,1-dimethylethyl]amino}&shy;ethyl)-2H-1,4-benzoxazin-3-(4H)-one]
[2]; 0.0001 to 0.01% instilled groups, 8 hours, FIG. 3
  Lacrimal secretion at 8 hours after ocular instillation: highly enhanced
[2]; 0.001 and 0.01% instilled groups, 16 hours, FIG. 3
  Tear volumes at 16 hours after ocular instillation: increase of tear volumes was observed
[2]; olodaterol-instilled groups 0.00001 to 0.01%, FIG. 3
  Lacrimal secretion: lacrimal secretion was enhanced
[1]; 0.0001, 0.001, 0.01% (w/v), single ocular instillation 20 μL/eye, 15, 30, 60 minutes, FIG. 1
  TBUT-extending effect: confirmed in a concentration-dependent manner
[3]
  TBUT-extending effect: TBUT-extending effect was confirmed
[4]; 0.01% ophthalmic solution
  Effect on intraocular pressure: did not show increase and/or decrease the intraocular pressure
[4]; 0.1% ophthalmic solution
  Effect on intraocular pressure: did not show increase and/or decrease the intraocular pressure
